# Measurements as given in patent US20150299188A1, “HETEROCYCLIC COMPOUND” (priority 2012, published 2015).
# Test system: FLAP (5-lipoxygenase activating protein)
# Experiment: In vitro binding test: displacement of [3H]-7-chloro-3-(5-((3-fluoropyridin-2-yl)methoxy)-2-methylphenyl)-3,4-dihydroquinazolin-2(1H)-one from Sf9 microsome fractions
# Design: species or system human and mouse
# Details: Sf9 microsome fractions expressing FLAP; 100% = radioligand binding with 10 μM sodium 3-(3-(tert-butylsulfanyl)-1-(4-chlorobenzyl)-5-isopropyl-1H-indol-2-yl)-2,2-dimethylpropanoate, 0% = DMSO; test compound concentration not given
# Procedure, shortened: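 Sf9 microsomes expressing human or mouse FLAP (2 μg/mL) preincubated with compound 10 min at room temperature, then 120 nM tritiated quinazolinone ligand added for 60 min; buffer 100 mM Tris-HCl pH 7.5 with NaCl, EDTA, DTT, glycerol, Tween20. Bound ligand filtered and counted by scintillation; 10 μM indole propanoate defines 100% inhibition, DMSO 0%.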
row,Structure (SMILES),inhibitory rate (%)
1,"COC(=O)c1cc2c(c(C3CC3)n1)CN(c1cc3c(cc1Cl)CCC(c1ncccc1F)O3)C(=O)N2 (stereo not shown) [Example 70, methyl 3-(6-chloro-2-(3-fluoropyridin-2-yl)-3,4-dihydro-2H-chromen-7-yl)-5-cyclopropyl-2-oxo-1,2,3,4-tetrahydropyrido[4,3-d]pyrimidine-7-carboxylate]",101%
2,"Cc1cc2c(cc1N1Cc3c(Cl)cncc3NC1=O)OC(c1ncccc1F)CC2 (stereo not shown) [Example 22, 5-chloro-3-(2-(3-fluoropyridin-2-yl)-6-methyl-3,4-dihydro-2H-chromen-7-yl)-3,4-dihydropyrido[3,4-d]pyrimidin-2(1H)-one]",109%
3,"N#Cc1ncc(Cl)c2c1NC(=O)N(c1cc3c(cc1Cl)CCC(c1ncccc1F)O3)C2 (stereo not shown) [Example 157, 5-chloro-3-(6-chloro-2-(3-fluoropyridin-2-yl)-3,4-dihydro-2H-chromen-7-yl)-2-oxo-1,2,3,4-tetrahydropyrido[3,4-d]pyrimidine-8-carbonitrile]",104%
4,"COc1cc2c(c(C3CC3)n1)CN(c1cc3c(cc1Cl)CCC(c1ncccc1F)O3)C(=O)N2 (stereo not shown) [Example 16, 3-(6-chloro-2-(3-fluoropyridin-2-yl)-3,4-dihydro-2H-chromen-7-yl)-5-cyclopropyl-7-methoxy-3,4-dihydropyrido[4,3-d]pyrimidin-2(1H)-one]",102%
5,"Cc1cc2c(cc1N1Cc3ncccc3NC1=O)OC(c1ncccc1F)CC2 (stereo not shown) [Example 45, 3-(2-(3-fluoropyridin-2-yl)-6-methyl-3,4-dihydro-2H-chromen-7-yl)-3,4-dihydropyrido[3,2-d]pyrimidin-2(1H)-one]",99%
6,"O=C1Nc2cc(N3CCOCC3)nc(C3CC3)c2CN1c1cc2c(cc1Cl)CCC(c1ncccc1F)O2 (stereo not shown) [Example 59, 3-(6-chloro-2-(3-fluoropyridin-2-yl)-3,4-dihydro-2H-chromen-7-yl)-5-cyclopropyl-7-(morpholin-4-yl)-3,4-dihydropyrido[4,3-d]pyrimidin-2(1H)-one]",107%
7,"Cc1cc2c(cc1N1Cc3c(cc(OC(F)F)nc3C3CC3)NC1=O)OC(c1ncccc1F)CC2 (stereo not shown) [Example 128, 5-cyclopropyl-7-(difluoromethoxy)-3-(2-(3-fluoropyridin-2-yl)-6-methyl-3,4-dihydro-2H-chromen-7-yl)-3,4-dihydropyrido[4,3-d]pyrimidin-2 (1H)-one]",111%
8,"CC(C)(O)c1cc2c(c(C3CC3)n1)CN(c1cc3c(cc1Cl)CCC(c1ncccc1F)O3)C(=O)N2 (stereo not shown) [Example 75, 3-(6-chloro-2-(3-fluoropyridin-2-yl)-3,4-dihydro-2H-chromen-7-yl)-5-cyclopropyl-7-(2-hydroxypropan-2-yl)-3,4-dihydropyrido[4,3-d]pyrimidin-2(1H)-one]",103%
9,"Cc1cc2c(cc1N1Cc3c(ccnc3C(C)C)NC1=O)OC(c1ncccc1F)CC2 (stereo not shown) [Example 67, 3-(2-(3-fluoropyridin-2-yl)-6-methyl-3,4-dihydro-2H-chromen-7-yl)-5-isopropyl-3,4-dihydropyrido[4,3-d]pyrimidin-2(1H)-one]",104%
10,"O=C1Nc2cc(=O)[nH]c(C3CC3)c2CN1c1cc2c(cc1Cl)CCC(c1ncccc1F)O2 (stereo not shown) [Example 17, 3-(6-chloro-2-(3-fluoropyridin-2-yl)-3,4-dihydro-2H-chromen-7-yl)-5-cyclopropyl-4,6-dihydropyrido[4,3-d]pyrimidine-2,7(1H,3H)-dione]",110%
11,"O=C1Nc2ccnc(C3CC3)c2CN1c1cc2c(cc1Cl)CCC(c1ncccc1F)O2 (stereo not shown) [Example 39, 3-(6-chloro-2-(3-fluoropyridin-2-yl)-3,4-dihydro-2H-chromen-7-yl)-5-cyclopropyl-3,4-dihydropyrido[4,3-d]pyrimidin-2(1H)-one]",94%
12,"O=C1Nc2ccnc(N3CCOCC3)c2CN1c1cc2c(cc1Cl)CCC(c1ncccc1F)O2 (stereo not shown) [Example 58, 3-(6-chloro-2-(3-fluoropyridin-2-yl)-3,4-dihydro-2H-chromen-7-yl)-5-(morpholin-4-yl)-3,4-dihydropyrido[4,3-d]pyrimidin-2(1H)-one]",117%
13,"O=C1Nc2cc(Cl)nc(C3CC3)c2CN1c1cc2c(cc1Cl)CCC(c1ncccc1F)O2 (stereo not shown) [Example 72, 7-chloro-3-(6-chloro-2-(3-fluoropyridin-2-yl)-3,4-dihydro-2H-chromen-7-yl)-5-cyclopropyl-3,4-dihydropyrido[4,3-d]pyrimidin-2(1H)-one]",104%
14,"CCc1cc2c(c(C3CC3)n1)CN(c1cc3c(cc1C)CCC(c1ncccc1F)O3)C(=O)N2 (stereo not shown) [Example 96, 5-cyclopropyl-7-ethyl-3-(2-(3-fluoropyridin-2-yl)-6-methyl-3,4-dihydro-2H-chromen-7-yl)-3,4-dihydropyrido[4,3-d]pyrimidin-2(1H)-one]",84%
15,"Cc1cc2c(cc1N1Cc3c(cc(/C=C/C(=O)O)nc3C3CC3)NC1=O)OC(c1ncccc1F)CC2 (stereo not shown) [Example 91, (2E)-3-(5-cyclopropyl-3-(2-(3-fluoropyridin-2-yl)-6-methyl-3,4-dihydro-2H-chromen-7-yl)-2-oxo-1,2,3,4-tetrahydropyrido[4,3-d]pyrimidin-7-yl)acrylic acid]",109%
16,"Cc1cc2c(cc1N1Cc3c(F)cnc(-c4cnn(C)c4)c3NC1=O)OC(c1ncccc1F)CC2 (stereo not shown) [Example 167, 5-fluoro-3-(2-(3-fluoropyridin-2-yl)-6-methyl-3,4-dihydro-2H-chromen-7-yl)-8-(1-methyl-1H-pyrazol-4-yl)-3,4-dihydropyrido[3,4-d]pyrimidin-2(1H)-one]",95%
17,"COCCOc1cnc(C(F)(F)F)c2c1NC(=O)N(c1cc3c(cc1C)CCC(c1ncccc1F)O3)C2 (stereo not shown) [Example 110, 3-(2-(3-fluoropyridin-2-yl)-6-methyl-3,4-dihydro-2H-chromen-7-yl)-8-(2-methoxyethoxy)-5-(trifluoromethyl)-3,4-dihydropyrido[4,3-d]pyrimidin-2(1H)-one]",99%
18,"O=C1Nc2cc(-c3cn[nH]c3)nc(C3CC3)c2CN1c1cc2c(cc1Cl)CCC(c1ncccc1F)O2 (stereo not shown) [Example 116, 3-(6-chloro-2-(3-fluoropyridin-2-yl)-3,4-dihydro-2H-chromen-7-yl)-5-cyclopropyl-7-(1H-pyrazol-4-yl)-3,4-dihydropyrido[4,3-d]pyrimidin-2(1H)-one]",102%

# The remaining lines, values ahead:
row,inhibitory rate (%),Structure (SMILES)
1,80%,"Cc1ccc(OCc2ccccc2F)cc1N1Cc2ccccc2NC1=O [Example 172, 3-(5-((2-fluorobenzyl)oxy)-2-methylphenyl)-3,4-dihydroquinazolin-2(1H)-one]"
2,84%,"CC(C)(C)Cc1ccc(OCc2c(F)cccc2F)cc1N1Cc2ccc(C(C)(C)O)cc2NC1=O [Example 293, 3-(5-((2,6-difluorobenzyl)oxy)-2-(2,2-dimethylpropyl)phenyl)-7-(2-hydroxypropan-2-yl)-3,4-dihydroquinazolin-2(1H)-one]"
3,76%,"O=C(O)CCc1ccc(OCc2ncccc2F)cc1N1Cc2ccccc2NC1=O [Example 229, 3-(4-((3-fluoropyridin-2-yl)methoxy)-2-(2-oxo-1,4-dihydroquinazolin-3(2H)-yl)phenyl)propanoic acid]"
4,102%,"Cc1ccc(OCc2c(F)cccc2F)cc1N1Cc2ccc(C(=O)NS(C)(=O)=O)cc2NC1=O [Example 209, 3-(5-((2,6-difluorobenzyl)oxy)-2-methylphenyl)-N-(methylsulfonyl)-2-oxo-1,2,3,4-tetrahydroquinazoline-7-carboxamide]"
5,104%,"COC(=O)c1ccc2c(c1)NC(=O)N(c1cc(OCc3ccccn3)ccc1C)C2 [Example 232, methyl 3-(2-methyl-5-(pyridin-2-ylmethoxy)phenyl)-2-oxo-1,2,3,4-tetrahydroquinazoline-7-carboxylate]"
6,102%,"COC(=O)c1ccccc1CN1C(=O)N(c2cc(OCc3ncccc3F)ccc2C)Cc2c(Cl)cccc21 [Example 295, methyl 2-((5-chloro-3-(5-((3-fluoropyridin-2-yl)methoxy)-2-methylphenyl)-2-oxo-3,4-dihydroquinazolin-1(2H)-yl)methyl)benzoate]"
7,96%,"Cc1ccc(OCc2ncccc2Br)cc1-n1c(=O)[nH]c2ccccc2c1=O [Example 371, 3-(5-((3-bromopyridin-2-yl)methoxy)-2-methylphenyl)quinazoline-2,4(1H,3H)-dione]"
8,51%,"Cc1ccc(OCc2cccs2)cc1N1Cc2ccccc2NC1=O [Example 175, 3-(2-methyl-5-(2-thienylmethoxyl)phenyl)-3,4-dihydroquinazolin-2(1H)-one]"
9,97%,"Cc1ccc(OCc2ncccc2F)cc1N1Cc2c(ccnc2C(N)=O)NC1=O [Example 322, 3-(5-((3-fluoropyridin-2-yl)methoxy)-2-methylphenyl)-2-oxo-1,2,3,4-tetrahydropyrido[4,3-d]pyrimidine-5-carboxamide]"
10,94%,"COC(=O)c1ccc2c(c1)NC(=O)N(c1cc(OCc3cccc(F)c3F)ccc1C)C2 [Example 198, methyl 3-(5-((2,3-difluorobenzyl)oxy)-2-methylphenyl)-2-oxo-1,2,3,4-tetrahydroquinazoline-7-carboxylate]"
11,86%,"COC(=O)c1ccc2c(c1)NC(=O)N(c1cc(OCc3csc(C)n3)ccc1C)C2 [Example 211, methyl 3-(2-methyl-5-((2-methyl-1,3-thiazol-4-yl)methoxy)phenyl)-2-oxo-1,2,3,4-tetrahydroquinazoline-7-carboxylate]"
12,91%,"Cc1ccc(OCc2c(F)cccc2F)cc1N1Cc2ccccc2NC1=O [Example 170, 3-(5-((2,6-difluorobenzyl)oxy)-2-methylphenyl)-3,4-dihydroquinazolin-2(1H)-one]"
13,72%,"O=c1[nH]c2cnccc2c(=O)n1-c1cccc(OCc2c(F)cccc2F)c1 [Example 330, 3-(3-((2,6-difluorobenzyl)oxy)phenyl)pyrido[3,4-d]pyrimidine-2,4(1H,3H)-dione]"
